Reference: PubChem BioAssay AID2060900 (Molecular Pharmacology Branch, DTP, NCI, 2025)
pIC50: −log10 of the molar value.

System: 521955-158-R2-J5-PDC complex spheroids, viability
Assay: Anticancer human tumor 521955-158-R2-J5-PDC patient-derived pancreatic carcinoma cell line growth inhibition [RAS]
Settings: for viability, T/C: stronger effect = lower value; for pIC50: curve of first compound
Outline: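 Tumour cells grown as complex spheroids with HUVEC endothelial cells and mesenchymal stem cells, treated with RAS pathway inhibitor combinations. Each agent spans half-log steps from near clinical Cmax, or 10 microM where Cmax is unknown.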
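Note: compound exposure lasted seven days before the viability read.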
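Throughout, for viability, T/C: spheroids also contain HUVEC endothelial cells and mesenchymal stem cells as stroma.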

O=C(c1ccc(F)c(F)c1Nc1ccc(I)cc1F)N1CC(O)([C@@H]2CCCCN2)C1
viability, T/C (compound 0.00316 µM): 82% [middle of 4 runs] | viability, T/C (compound 0.01 µM): 71% [middle of 4 runs] | viability, T/C (compound 0.0316 µM): 51.7% [middle of 4 runs] | viability, T/C (compound 0.1 µM): 42.8% [middle of 4 runs] | viability, T/C (compound 0.316 µM): 33.9% [middle of 4 runs] | viability, T/C (compound 1 µM): 23.6% [middle of 4 runs] | IC50 (curve of compound): 40.1 nM [middle of 4 runs]

CC(C)NCC(C(=O)N1CCN(c2ncnc3c2C(C)CC3O)CC1)c1ccc(Cl)cc1 (centres undefined) + CCn1c(-c2cc(N3CCN(C)CC3)cnc2C(C)OC)c2c3cc(ccc31)-c1csc(n1)CC(NC(=O)C1CC1C)C(=O)N1CCCC(N1)C(=O)OCC(C)(C)C2
pIC50 (second compound 0.000949 µM): > 7.50 | pIC50 (second compound 0.003 µM): > 7.50 | pIC50 (second compound 0.00949 µM): > 7.50 | pIC50 (second compound 0.03 µM): > 7.50 | pIC50 (second compound 0.0949 µM): > 7.50 | pIC50 (second compound 0.3 µM): > 7.50 | viability, T/C (second compound 0.000949 µM, first compound 0.0316 µM): 33.8% | viability, T/C (second compound 0.000949 µM, first compound 0.1 µM): 38.8% | viability, T/C (second compound 0.000949 µM, first compound 0.316 µM): 35.5% | viability, T/C (second compound 0.000949 µM, first compound 1 µM): 23% | viability, T/C (second compound 0.000949 µM, first compound 3.16 µM): 15.5% | viability, T/C (second compound 0.000949 µM, first compound 10 µM): 18.1% | viability, T/C (second compound 0.003 µM, first compound 0.0316 µM): 41.8% | viability, T/C (second compound 0.003 µM, first compound 0.1 µM): 37% | viability, T/C (second compound 0.003 µM, first compound 0.316 µM): 36% | viability, T/C (second compound 0.003 µM, first compound 1 µM): 15% | viability, T/C (second compound 0.003 µM, first compound 3.16 µM): 6.94% | viability, T/C (second compound 0.003 µM, first compound 10 µM): 11.1% | viability, T/C (second compound 0.00949 µM, first compound 0.0316 µM): 38.7% | viability, T/C (second compound 0.00949 µM, first compound 0.1 µM): 33.9% | viability, T/C (second compound 0.00949 µM, first compound 0.316 µM): 28% | viability, T/C (second compound 0.00949 µM, first compound 1 µM): 8.72% | viability, T/C (second compound 0.00949 µM, first compound 3.16 µM): 4.36% | viability, T/C (second compound 0.00949 µM, first compound 10 µM): 7.59% | viability, T/C (second compound 0.03 µM, first compound 0.0316 µM): 20.9% | viability, T/C (second compound 0.03 µM, first compound 0.1 µM): 21.9% | viability, T/C (second compound 0.03 µM, first compound 0.316 µM): 16.6% | viability, T/C (second compound 0.03 µM, first compound 1 µM): 5.37% | viability, T/C (second compound 0.03 µM, first compound 3.16 µM): 5.01% | viability, T/C (second compound 0.03 µM, first compound 10 µM): 1.08% | viability, T/C (second compound 0.0949 µM, first compound 0.0316 µM): 11.8% | viability, T/C (second compound 0.0949 µM, first compound 0.1 µM): 13.1% | viability, T/C (second compound 0.0949 µM, first compound 0.316 µM): 8.25% | viability, T/C (second compound 0.0949 µM, first compound 1 µM): 4.84% | viability, T/C (second compound 0.0949 µM, first compound 3.16 µM): 4.83% | viability, T/C (second compound 0.0949 µM, first compound 10 µM): 1.9% | viability, T/C (second compound 0.3 µM, first compound 0.0316 µM): 10.5% | viability, T/C (second compound 0.3 µM, first compound 0.1 µM): 11% | viability, T/C (second compound 0.3 µM, first compound 0.316 µM): 8.33% | viability, T/C (second compound 0.3 µM, first compound 1 µM): 2.49% | viability, T/C (second compound 0.3 µM, first compound 3.16 µM): 4.32% | viability, T/C (second compound 0.3 µM, first compound 10 µM): 1.07%
